Source: US20100317578A1, “METHOD OF PROTECTING AGAINST STROKE THROUGH THE USE OF A DELTA OPIOID PEPTIDE” (priority 2009, published 2010)

Tests used:
Format in all cases: in vivo, Sprague-Dawley rats
[1] = system: ischemia-induced asymmetrical motor deficits (MCAor); assay: Battery of behavioral tests after MCAor surgery
[2] = system: cerebral infarction in the striatum after MCAor; assay: Cerebral infarction assay (TTC staining)
p53 mRNA = assay: Determination of p53 mRNA expression (northern blot); details: 24 hr post-MCAor
Method: To examine whether DADLE altered programmed cell death or apoptosis, which has been postulated to mediate ischemia-induced cell injury, the mRNA expression of the apoptotic marker p53 were assayed. At 24 hr and 72 hr after MCAor surgery, randomly selected animals that received either DADLE alone or saline alone were euthanized by rapid decapitation. The striatum was dissected and quickly frozen using dry ice then stored in −80° C. freezer until tissue processing was conducted. Total RNA extraction, northern blot analysis and hybridization were conducted using standard methods as described in Chomczynski et al., Anal Biochem 1987, 162:156-159 and Mattson, Brain Res 2000, 886:47-53 [34,35]. Analyses of resulting bands were quantified using a Macintosh computer-based image analysis system (Image, NIH). Densitometrically determined intensities of p-53 mRNA was normalized to 18S rRNA.

caspase-3 = assay: Immunohistochemistry of apoptosis markers, caspase-3; details: ischemic striatum, 72 hours after MCAor
Method: (§1) In order to further characterize the effects of DADLE on apoptotic cell death, 20 animals were subjected to the same procedures as above, and the treatment effects of DADLE (n=10) against saline vehicle alone (n=10) were compared. Rats were euthanized at 72 hours after MCAor surgery. The rats were perfused transcardially with 200 ml of cold phosphate-buffered saline (PBS) and 200 ml of 4% paraformaldehyde in PBS. Brains were removed and post-fixed in the same fixative overnight at 4° C. with the subsequent replacement with 30% sucrose in PBS for 72 hours. The brains were coronally sectioned at the thickness of 8 μm. Sections were washed 3 times for 5 minutes in PBS. Sections were then incubated overnight at 4° C. with caspase-3 (Abeam, 1:500) or Fas (Santa Cruz Biotechnology, 1:100) primary antibody and washed 3 times in PBS. […]
(§2) For morphological analyses, immunoreactive cells in the striatum within the ipsilateral to the stroke hemisphere were examined using a Zeiss LSM510 confocal microscope (Oberkochen, Germany). Specifically, 6 coronal sections at every 300 μm that approximately captured the ischemic striatum (AP −2.0 to +2.0 mm from the bregma) were examined from each rat and the number of positive cells was counted in each 6 high power fields and the averages were used for the statistical analyses. […]

Fas = assay: Immunohistochemistry of apoptosis markers, Fas; details: ischemic striatum, 72 hours after MCAor
Method: as §1, §2

[3] = system: glial cell line-derived neurotrophic factor (GDNF); assay: ELISA assay of GDNF in brain tissues; details: striatal and cortical tissues, p<0.05
Method: (§3) To examine possible non-opioid effects of DADLE, assays of expression of neurotrophic factors (glial cell line-derived neurotrophic factor (GDNF) and nerve growth factor (NGF)) that have been previously shown to be protective against ischemia were performed. Enzyme-linked immunosorbent assay (ELISA) was conducted on ischemic animals injected either with DADLE or saline (n=6 per group). Following the same drug dosing regimen mentioned above, animals were rapidly decapitated, their brains removed and striatal and frontal cortical tissues quickly dissected. Brain homogenization and supernatant acidification were performed using methods as described in Okragly et al., Exp Neurol 1997, 145:592-596 [37] with minor modifications. Protein concentrations were measured by using the BCA Kit (Pierse, Rockford, Ill. USA). For the measurement of GDNF, mouse monoclonal anti-GDNF antibody (R & D Systems, Inc., Minnesota, USA) was used as a capture antibody and biotinylated goat anti-GDNF antibody (R & D Systems, Inc., Minnesota, USA) was used as a detection antibody. For the measurement of NGF, the NGF Emax TM ImmunoAssay system (Promega Cooperation, Madison, Wis., USA) was used. The THERMOmax 96-well microplate reader (Molecular Devices Corp., Sunnyvale, Calif. USA) was used to measure the optical densities.

[4] = system: nerve growth factor (NGF); assay: ELISA assay of NGF in brain tissues; details: striatal and cortical tissues, p>0.05
Method: as §3

[5] = system: ischemia-induced biased swing activity (MCAor); assay: Elevated body swing test (EBST); details: pooled mean of ischemic animals pretreated with saline, naltrexone alone or naloxone methiodide alone
Method: (§4) After recovery from anesthesia, animals were evaluated on a battery of tests including spontaneous rotational test, elevated body swing test (EBST), postural bias test and forelimb akinesia test.
The EBST is described in detail in Borlongan et al., Exp Neurol 1998, 149:310-321[17], and has been utilized to characterize the biased swing activity of ischemic animals starting at one month post-ischemia and extending up to three months post-surgery. The animal was lifted 20 times by its tail and the direction of the swing was recorded.

[6] = system: ischemia-induced spontaneous rotational behavior (MCAor); assay: Spontaneous rotational test; details: pooled mean of ischemic animals pretreated with saline, naltrexone alone or naloxone methiodide alone
Method: as §4
(§5) The spontaneous rotational test was performed immediately after the animal's recovery from anesthesia following insertion of the embolus. The animal was placed in a chamber made of transparent Plexiglas (40×40×35.5 cm) and the direction of the animal's rotation was noted over two 5-minute sessions. Two full turns (tight ipsiversive rotations) per minute was considered indicative of a brain insult. For the postural bias test and forelimb akinesia test, a semiquantitative scale was used as described in Bederson et al., Stroke 1986, 17:472-476 [33].

[7] = system: ischemia-induced postural bias (MCAor); assay: Postural bias (tail-hang) test; details: scale 0-3; pooled mean of ischemic animals pretreated with saline, naltrexone alone or naloxone methiodide alone
Method: as §5
The postural tail-hang test involved holding the animal by the tail (similar to the EBST) and noting the positions of the forelimbs. A scale is used for grading the ischemic injury-induced dysfunctions as follows: 0, rats extend straight both forelimbs, no observable deficit; 1, rats keep the left forelimb to the breast and extend straight the right forelimb; 2, rats show decreased resistance to lateral push in addition to behavior in score 1 without circling; 3, rats twist the upper half of their body in addition to behavior in score 2.
Finally, the forelimb akinesia test involved pulling each forelimb at 90 degrees away from the body median axis. The return of the forelimb towards the midline was scored as 0 for slow movement with rigidity, 1 for slow movement, and 2 for smooth rapid movement. […]

[8] = system: ischemia-induced forelimb akinesia (MCAor); assay: Forelimb akinesia test; details: scale 0-2; pooled mean of ischemic animals pretreated with saline, naltrexone alone or naloxone methiodide alone
Method: The spontaneous rotational test [32] was performed immediately after the animal's recovery from anesthesia following insertion of the embolus. The animal was placed in a chamber made of transparent Plexiglas (40×40×35.5 cm) and the direction of the animal's rotation was noted over two 5-minute sessions. Two full turns (tight ipsiversive rotations) per minute was considered indicative of a brain insult [17,32].
Finally, the forelimb akinesia test involved pulling each forelimb at 90 degrees away from the body median axis. The return of the forelimb towards the midline was scored as 0 for slow movement with rigidity, 1 for slow movement, and 2 for smooth rapid movement. A score of 1 in the scale for postural bias test or forelimb akinesia test was considered as indicative of CNS dysfunction [17].

| Structure (SMILES) | behavior in EBST, spontaneous rotational test, postural bias test and forelimb akinesia test ([1]; rat, in vivo) | mean volume of infarcted striatal tissue ([2]; rat, in vivo) | increment in p-53 mRNA expression in ischemic striatum compared to intact striatum of control, normal animals (p53 mRNA; normalized to 18S rRNA, vehicle 65% increment, not significant vs control (p>0.05)) | p-53 mRNA expression in ischemic striatum compared to vehicle-treated ischemic animals (p53 mRNA; only a trend, p=0.07) | caspase-3-positive cells compared to vehicle-treated ischemic animals (caspase-3) | Fas-positive cells compared to vehicle-treated ischemic animals (Fas) | levels of GDNF compared to saline-treated ischemic animals [3] | levels of NGF compared to saline-treated ischemic animals [4] | mean percentage biased swing response [5] | mean ipsiversive rotations per minute [6] | mean postural bias score [7] | mean akinesia score [8] | mean volume of infarcted striatal tissue ([2]; TTC staining at 24 or 72 hr after reperfusion, saline 81.2±5.3 mm^3) | behavior in EBST, spontaneous rotational test, postural bias test and forelimb akinesia test ([1]; ischemic rats, pretreatment i.p. before MCAor, throughout the post-MCAor test period (day 0 to 3)) |
| --- | --- | --- | --- | --- | --- | --- | --- | --- | --- | --- | --- | --- | --- | --- |
| CC(C)C[C@@H](NC(=O)[C@H](Cc1ccccc1)NC(=O)CNC(=O)[C@@H](C)NC(=O)[C@@H](N)Cc1ccc(O)cc1)C(=O)O [DADLE, [D-Ala^2,D-Leu^5]enkephalin] | near-normal behaviors | no detectable infarction | 28% | marked reduction | significant reductions | significant reductions | significantly higher | did not differ | – | – | – | – | – | – |
| C=CC[N+]1(C)CC[C@]23c4c5ccc(O)c4O[C@H]2C(=O)CC[C@@]3(O)[C@H]1C5 (stereo partly drawn) [naloxone methiodide] | significant abnormalities | – | – | – | – | – | – | – | 82.8%±12.3 | 2.52±0.56 rotations per minute | 2.25±0.31 | 1.17±0.15 | 78.7±7.4 mm^3 | – |
| O=C1CC[C@@]2(O)[C@H]3Cc4ccc(O)c5c4[C@@]2(CCN3CC2CC2)[C@H]1O5 [naltrexone] | – | – | – | – | – | – | – | – | 82.8%±12.3 | 2.52±0.56 rotations per minute | 2.25±0.31 | – | – | significant abnormalities |
